Test results as given in a melting point compilation (Tetko et al.; mined from patent text by program, amines drawn as free bases though some values may be those of a salt).

melting point	Structure (SMILES)
148 to 149 °C	C=C(C)C(=O)OCc1c(Br)c(Br)c(COC(=O)C(=C)C)c(Br)c1Br
130 to 131 °C	Cn1c(COc2ccc(CC3SC(=O)NC3=O)cc2)nc2ccc(Oc3ccc(NC(=S)Nc4ccccc4)cc3)cc21 (stereo not drawn)
198 to 201 °C	CC(C)Oc1ccc(F)c(-c2nn(C(C)c3oc4ccccc4c(=O)c3-c3cccc(F)c3)c3ncnc(N)c23)c1 (stereo not drawn)
100 to 103 °C	Cn1cccc1-c1oncc1C(=O)Nc1ccccc1
150 °C	CCCc1nc(C)n2nc(N)nc2c1Cc1ccc(-c2ccccc2C#N)cc1
202 to 204 °C	COc1ccc2c(c1)S(=O)(=O)C(C(=O)Nc1ccc(F)cc1)C(=O)N2C (stereo not drawn)
121 to 122 °C	COc1ccc([N+](=O)[O-])cc1CO
166 to 168 °C	COc1ccc(C(=O)Nc2ccc(F)cc2F)cc1N
282 to 283 °C	CC(=O)NC1CCn2c1nc1cc(NC(=O)c3cc4cc(F)ccc4n3Cc3cccc(F)c3)cnc12 (stereo not drawn)
162 to 163 °C	O=c1[nH]c(=O)n(CCCCCCl)c2ccccc12
49 to 51 °C	N#CCCC(=O)c1cccc(Cl)c1
176 to 177 °C	COc1cc(Nc2nccc(-c3ccc(NCCC4CCCN4C)nc3)n2)cc(OC)c1OC (stereo not drawn)
106 to 109 °C	CC(=O)OCC(C)(C)CS(N)(=O)=O
181 to 183 °C	CN(C)C(=O)Cn1c(-c2ccc(C(F)(F)F)cc2)nc2cccnc21
134 °C	CCC(=O)Oc1cc(OC)cc(OC)c1C(=O)C=Cc1ccc2c(c1)OCO2
121 °C	O=C(CNc1ccc(Cl)cc1)NCCc1ccc(OCc2ccccc2)c(OCc2ccccc2)c1
294 to 296 °C	Cc1nc(-n2ccc(O)cc2=O)sc1C(=O)NCc1ccc(F)c(F)c1
97.5 to 99 °C	CCCCCCCCCCCCCCCCc1cc(-c2ccccn2)nc(-c2ccccn2)c1
110 to 111 °C	COc1ccccc1C(OC)c1cccnn1 (stereo not drawn)
102 to 105 °C	CC(C)N(C)C(=O)N1N=C2c3cc(F)ccc3OC[C@@H]2[C@@H]1c1ccccc1 (racemic)
275 °C	NS(=O)(=O)c1ccc(-c2noc(-c3cnn4c(C(F)(F)F)cc(-c5ccc(C(F)(F)F)cc5)nc34)n2)cc1
114 to 117 °C	CC(C)(C)OC(=O)N[C@H](Cc1ccc(Cl)c(Cl)c1)C(=O)N1CCC[C@H]1C(=O)NC1CCc2nc(N)ncc2C1 (stereo partly drawn)
182 °C	Cc1nc(-c2cccc(Cl)c2)c2cc(C(=O)c3ccc(Cl)cc3)ccc2n1
126 to 130 °C	COc1ccc(-c2nc(CNC(=O)CC(=O)O)sc2-c2ccc(OC)cc2)cc1

melting point	Structure (SMILES)
234 to 235 °C	ClC1=Nc2cc(Cl)ccc2Sc2cscc21
85 to 86 °C	CCC(CC)(CC(=O)Nc1cccc(OCc2ccc3ccc(C(F)(F)F)cc3n2)c1)C(=O)O
217 to 219 °C	Cn1cc(Br)cc(Nc2ccncn2)c1=O
> 300 °C	O=c1[nH]c2cc(Cl)ccc2c(O)c1Sc1ccccc1
230 to 232 °C	O=C(O)COc1ccc(Cl)c2c(=O)c3ccccc3sc12
97 to 99 °C	CC(=O)OCC1OC(OC2C(COC(C)=O)OC(O)(Br)C(OC(C)=O)C2OC(C)=O)C(OC(C)=O)C(OC(C)=O)C1OC(C)=O (stereo not drawn)
174 to 176 °C	Cn1cnc(COc2nc3c(cc2-c2ccsc2)nnn3-c2ccccc2F)n1
89.5 to 92 °C	NCCOCC(O)c1cccc2ccccc12 (stereo not drawn)
113 to 114 °C	COC(=O)N(O)Cc1c(C)n(C(=O)c2ccc(Cl)cc2)c2ccc(OC)cc12
165 to 166 °C	C=CCn1ccnc1C(O)(c1ccccc1)c1ccc(Cl)cc1 (stereo not drawn)
91 to 94 °C	CCCC(c1ccncc1)n1ccc2ccccc21 (stereo not drawn)
164 to 168 °C	CCOC(=O)C=Cc1ccc2c(c1)c1cc(C=CC(=O)OCC)ccc1n2CC
180 to 185 °C	O=C1CN(C(=O)OCC2c3ccccc3-c3ccccc32)CC(=O)O1
175 to 176 °C	COc1ccc(-c2cc(=S)n(Cc3ccc(F)cc3F)nc2-c2ccc(OC)cc2)cc1
79 to 82 °C	CN1C(=O)C2CCCCC2N=C1c1ccccc1 (stereo not drawn)
158 to 160 °C	CC(=O)C1CCC2=C(C1)C1OC2c2cc3ccccc3cc21 (stereo not drawn)
103 to 105 °C	Nc1ccc(Cl)cc1C(=O)c1c(F)cccc1F
168 to 172 °C	CCCc1nc2c(N)nc3cc(OCCCCCCNC(C)=O)ccc3c2n1CCCCNS(C)(=O)=O
111 to 112 °C	ON=Cc1c(C(F)(F)F)ccc(F)c1F
233 to 235 °C	CC(C)(C)n1[nH]c(Cc2ccncc2)c2c(=O)nc(-c3ccncc3)nc1-2
206 to 208 °C	Cc1nc(C)c(Cl)c(NCc2ccc(OCCn3c([N+](=O)[O-])cnc3C)c(Cl)n2)n1
108 to 110 °C	CC(=O)Nc1nc(CCc2ccc(C(=O)NC(=N)N)cc2)c(Cc2ccc(S(C)(=O)=O)cc2)s1
138 to 139 °C	Cc1oc(-c2ccccc2)nc1CCOc1ccc(C[C@@H](C(=O)O)N2CCN(c3cccc(Cl)c3)CC2)cc1
67 to 68 °C	COc1cc(C(=O)C(Br)Br)cc(OC)c1OC

melting point	Structure (SMILES)
228 to 231 °C	CCCCNc1ccc(-c2nc(C(=O)Nc3nccs3)c(-c3cccc(OC)c3)[nH]2)cc1
78 °C	Cc1cc(C)nc(NC(=O)NS(=O)(=O)c2ccccc2-c2ccccc2)n1
149 to 151 °C	N#Cc1ncc(NCCO)nc1N1CCN(c2ccc(F)cc2)CC1
126 to 127 °C	Cc1cc(-c2ccc(S(N)(=O)=O)cc2)n(-c2ccc(F)cc2)c1
159 to 160 °C	O=C(O)CCc1ccc(C=CC(=O)c2ccccc2)cc1
191 to 194 °C	CC(=O)N1C(=O)Cc2cc(F)c(N3C(=O)C4=C(CCCC4)C3=O)cc21
184 to 186 °C	CCCCC(=O)NCc1ccc2c(c1)C(=O)N(C1CCC(=O)NC1=O)C2=O (stereo not drawn)
128 to 130 °C	COc1ccccc1N1CCN(C(=O)N(C)c2nc3ccccc3nc2OC)CC1
154 to 155 °C	OCCOCn1cc(I)c2c(Cl)ncnc21
111 to 113 °C	CC12C=CC(C1)C(C(N)=O)C2(C(N)=O)c1cccc(Br)c1 (stereo not drawn)
202 to 203 °C	N#CN=C(Nc1cccnc1)NC(CC12CC3CC(CC(C3)C1)C2)NC(=O)c1ccc(Cl)cc1 (stereo not drawn)
157 to 161 °C	CC(=O)N1N=C(c2ccc([N+](=O)[O-])c(C)c2)c2cc3c(cc2CC1C(N)=O)OCO3 (stereo not drawn)
68 to 70 °C	CC(C)(C)OC(=O)N1CCN(C(=O)CCl)CC1
251 to 253 °C	N=C(NN)c1ccccc1C(=N)NN
162 °C	COc1ccc(-c2ccccc2-c2ccc(S(C)(=O)=O)cc2)cc1Cl
76 to 77 °C	O=C(O)[C@H](Cc1ccc(C(F)(F)F)cc1)[C@@H](O)c1ccc(F)c(F)c1 (racemic)
96 to 97 °C	CCOC(=O)c1cc(Cl)c(Cl)c(C2=NOCC2)c1C
58 to 60 °C	Cc1ccc(C(=Cc2nnnn2C)c2ccc(C)cc2F)c(F)c1
267 to 269 °C	COc1ccc(-c2ccc3cc(C(=O)O)ccc3c2)cc1
250 °C	N#Cc1cc(-c2cnccn2)c[nH]c1=O
76 to 80 °C	CCOC(=O)CCc1c(C)nc(CC)n(Cc2ccc(-c3ccccc3-c3nnn[nH]3)cc2)c1=O
180 to 182 °C	Oc1c(F)ccc(-c2c3ccccc3c(Br)c3sc4ccccc4c23)c1F
89 to 90 °C	CCOC(=O)c1c(CC)nn2ccc3oc(C)cc3c12
235 to 236 °C	CCCOC(=O)CCc1cc(S(C)(=O)=O)cc(-c2nc(=O)c3ccc(Cl)cc3s2)n1

melting point	Structure (SMILES)
170 to 171 °C	COC(=O)c1ccc(CCc2csc(NC(C)=O)n2)cc1
152 to 154 °C	CCOC(=O)C1(Nc2nc(-c3ccc(Br)cc3)cs2)CC1
115 °C	CCOCCOc1ccc(-c2nc(C(=O)Nc3nccs3)c(-c3ccc(Cl)cc3)[nH]2)cc1
150 to 155 °C	O=C1CN(CCN2CC(=O)N(CN3CCCC3)C(=O)C2)CC(=O)N1CN1CCCC1
128 to 132 °C	COCCc1sc2ncnc(N)c2c1-c1ccc(NC(=O)Nc2ccc(C)cc2)cc1
240 to 244 °C	COc1ccc2c(c1)c(-c1cc3nccnc3[nH]1)cn2Cc1ccccc1
186 °C	CN1C(=O)c2c(Oc3ccccc3OS(=O)(=O)C(F)(F)F)cc3c(c2C1=O)c1ccc(OCc2ccccc2)cc1n3C(=O)OC(C)(C)C
131 °C	O=C(O)CCc1nn(-c2ccc(F)cc2)cc1-c1ccc(Cl)cc1
158 to 159 °C	Cc1ccc(S(=O)(=O)NCCCCOc2ccc(-c3nc(-c4ccc(Cl)cc4)cs3)cc2)cc1
155 to 156 °C	Nc1cc(N2CC(c3ccccc3)OC2=O)ccn1 (stereo not drawn)
142 to 144 °C	CC(=O)Nc1ccc(Sc2ccccc2)cc1
153 °C	N#Cc1ccc(C(O)(Cc2ccccc2)Cc2ccccc2)cc1
166 to 169 °C	COc1c(Cl)ccc(-c2cc(N)c(Cl)c(C(=O)NOCc3ccccc3)n2)c1F
91 to 95 °C	COCCc1nc(Cl)c(CO)[nH]1
143 °C	Nc1ccc2c(c1)C(=Cc1cccs1)c1ccccc1-2
255 to 259 °C	CC(C)(O)c1ccnc(-c2ccc3nc(-c4n[nH]c5ccccc45)cn3c2)c1
218 to 220 °C	CS(=O)(=O)NC1Cc2ccc(C3=NNC(=O)CC3)cc2C1 (stereo not drawn)
76 to 78 °C	CCCCCCCN(CC(c1ccccc1)c1ccccc1)C(=O)Nc1ccc(F)cc1F
159 °C	CCOC(=O)C1=C(N)NC(c2ccccc2)=CC1c1ccccc1 (stereo not drawn)
219 to 220 °C	CCCc1c(C(=O)NCc2ccc3c(Br)c(OCc4nnn[nH]4)ccc3c2)cnn1-c1ccccc1
114 to 115 °C	COc1cc(O[C@@H](C)C(=O)O)c(Cl)cc1Cl
205 to 207 °C	CC(C)(N)CNc1ncc2ncnc(Nc3ccc(F)c(Cl)c3)c2n1

Structure (SMILES)	melting point
CCCCCCCCCNC(=O)CCC(=O)OO	85 to 91 °C
CN(c1ccccc1)P(N)(N)=O	97 to 99 °C
CCOC(=O)c1c(C)cc2nc(C)n(-c3ccccc3Cl)c(=O)c2c1C	131 to 132 °C
CCOC1CC2(C)C(CCC3C4CCC(=O)C4(C)CC(=O)C32)CC1O (stereo not drawn)	164 to 167 °C
